pIC50: −log10 of the molar value.
Target: [Pyruvate dehydrogenase (acetyl-transferring)] kinase isozyme 1, mitochondrial (Homo sapiens, UniProt Q15118)
Experiment: Binding affinity to pyruvate dehydrogenase kinase 1 (unknown origin) incubated for 90 mins by VER-00160364 probe based fluorescence polarization assay

[Pyruvate dehydrogenase (acetyl-transferring)] kinase isozyme 1, mitochondrial, sequence (Q15118 whole entry): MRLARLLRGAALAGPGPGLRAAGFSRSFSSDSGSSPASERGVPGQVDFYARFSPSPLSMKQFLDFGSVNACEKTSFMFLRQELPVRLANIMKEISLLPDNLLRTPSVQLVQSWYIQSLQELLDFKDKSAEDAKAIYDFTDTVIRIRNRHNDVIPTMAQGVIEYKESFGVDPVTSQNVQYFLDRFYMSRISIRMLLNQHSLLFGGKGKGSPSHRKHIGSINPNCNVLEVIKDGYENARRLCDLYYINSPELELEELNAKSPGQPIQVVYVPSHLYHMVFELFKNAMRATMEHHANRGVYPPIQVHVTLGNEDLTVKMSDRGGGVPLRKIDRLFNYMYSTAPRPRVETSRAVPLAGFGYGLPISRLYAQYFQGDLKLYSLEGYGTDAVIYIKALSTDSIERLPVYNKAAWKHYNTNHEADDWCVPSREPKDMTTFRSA

Row | pIC50 | Compound
1 | 7.00 | Cc1cc(S(=O)(=O)N2CCCCC2)cnc1-c1ccc(N(Cc2ccccc2)C(=O)c2ccc(O)cc2O)cc1
2 | 7.00 | COc1ccc(CN(C)C(=O)c2ccc(N(Cc3ccsc3)C(=O)c3ccc(O)cc3O)cc2)cc1
3 | 8.00 | Cc1cc(Cl)nnc1-c1ccc(N(Cc2cccnc2)C(=O)c2ccc(O)cc2O)cc1
4 | 6.00 | CCc1cc2ccccc2nc1-c1ccc(N(Cc2ccsc2)C(=O)c2ccc(O)cc2O)cc1
5 | 6.00 | Cc1cc2ccccc2nc1-c1ccc(N(Cc2ccccc2)C(=O)c2cc(Cl)c(O)cc2O)cc1
6 | 7.00 | Cc1ccnnc1-c1ccc(N(Cc2cccnc2)C(=O)c2ccc(O)cc2O)cc1
7 | 8.00 | Cc1nccn1-c1ccc(-c2ccc(N(Cc3ccccc3)C(=O)c3ccc(O)cc3O)cc2)nn1
8 | 6.00 | Cc1cc2ccccc2nc1-c1ccc(N(Cc2ccc(Cl)cc2)C(=O)c2ccc(O)cc2O)cc1
9 | 7.00 | CN(Cc1ccc(C#N)cc1)C(=O)c1ccc(N(Cc2cccnc2)C(=O)c2ccc(O)cc2O)cc1
10 | 7.00 | Cc1ccc(S(N)(=O)=O)nc1-c1ccc(N(Cc2ccsc2)C(=O)c2ccc(O)cc2O)cc1
11 | 6.00 | CNC(=O)c1ccc(N(Cc2ccccc2)C(=O)c2ccc(O)cc2O)cc1
12 | 7.00 | Cc1csc2ncnc(-c3ccc(N(Cc4cccnc4)C(=O)c4ccc(O)cc4O)cc3)c12
13 | 8.00 | COCCN(C)S(=O)(=O)c1cnc(-c2ccc(N(Cc3cccnc3)C(=O)c3ccc(O)cc3O)cc2)c(C)c1
14 | 6.00 | Cc1ccc(C)c(-c2ccc(N(Cc3cccnc3)C(=O)c3ccc(O)cc3O)cc2)n1
15 | 7.00 | Cc1cc2ccccc2nc1-c1ccc(N(Cc2cccc3ccccc23)C(=O)c2ccc(O)cc2O)cc1
16 | 6.00 | C#Cc1ncc(C)c(-c2ccc(N(Cc3ccccc3)C(=O)c3ccc(O)cc3O)cc2)n1
17 | 6.00 | O=C(c1ccc(O)cc1O)N(Cc1cccnc1)c1ccc(-c2ccc(Cl)nc2)cc1
18 | 6.00 | O=C(c1ccc(O)cc1O)N(Cc1cccnc1)c1ccc(-c2ccc(Cl)cc2Cl)cc1
19 | 7.00 | O=C(c1ccc(O)cc1O)N(Cc1cccnc1)c1ccc(-c2nc3ccccc3cc2CO)cc1
20 | 5.00 | COc1cc(-c2ccc(N(Cc3ccsc3)C(=O)c3ccc(O)cc3O)cc2)ncn1
21 | 7.00 | CN(C)C(=O)c1ccc(N(Cc2cccc(C#N)c2)C(=O)c2cc(Cl)c(O)cc2O)cc1
22 | 6.00 | Cc1cc2ccccc2nc1-c1ccc(N(Cc2ccc(CN3CCOCC3)cc2)C(=O)c2ccc(O)cc2O)cc1
23 | 6.00 | O=C(c1ccc(O)cc1O)N(Cc1ccccc1)c1ccc(-c2ccc(N3CCOCC3)nn2)cc1

Row | pIC50 | Compound
24 | 6.00 | CCOc1ccc2nc(-c3ccc(N(Cc4ccsc4)C(=O)c4ccc(O)cc4O)cc3)c(C)cc2c1
25 | 7.00 | CN(C)C(=O)c1ccc(N(Cc2cccnc2)C(=O)c2ccc(O)cc2O)cc1
26 | 7.00 | CN(C)C(=O)c1ccc(N(Cc2ccn(C)n2)C(=O)c2ccc(O)cc2O)cc1
27 | 6.00 | O=C(Nc1ccc(N(Cc2ccccc2)C(=O)c2ccc(O)cc2O)cc1)c1ccccc1
28 | 7.00 | CN(Cc1cccc2cccnc12)C(=O)c1ccc(N(Cc2cccnc2)C(=O)c2ccc(O)cc2O)cc1
29 | 6.00 | O=C(c1ccc(O)cc1O)N(Cc1ccccc1)c1ccccc1
30 | 6.00 | CN(C)CCN(C)C(=O)c1ccc(N(Cc2ccccc2)C(=O)c2ccc(O)cc2O)cc1
31 | 8.00 | CNS(=O)(=O)c1cnc(-c2ccc(N(Cc3cccnc3)C(=O)c3ccc(O)cc3O)cc2)c(C)c1
32 | 6.00 | Nc1nccc(-c2ccc(N(Cc3ccsc3)C(=O)c3ccc(O)cc3O)cc2)n1
33 | 7.00 | Cc1cc(N(Cc2ccccc2)C(=O)c2ccc(O)cc2O)ccc1-c1nc2cc(F)ccc2cc1C
34 | 8.00 | Cc1cc(S(=O)(=O)NCCCC(N)=O)cnc1-c1ccc(N(Cc2ccccc2)C(=O)c2ccc(O)cc2O)cc1
35 | 8.00 | CN(C)C(=O)c1ccc(N(Cc2ccccc2)C(=O)c2cc(Cl)c(O)cc2O)cc1
36 | 8.00 | CC(=O)NCCNS(=O)(=O)c1cnc(-c2ccc(N(Cc3ccccc3)C(=O)c3ccc(O)cc3O)cc2)c(C)c1
37 | 8.00 | Cc1cnc(Cl)nc1-c1ccc(N(Cc2cccc(Cn3ccnc3)c2)C(=O)c2cc(Cl)c(O)cc2O)cc1
38 | 6.00 | Nc1ccc(-c2ccc(N(Cc3cccnc3)C(=O)c3ccc(O)cc3O)cc2)nn1
39 | 8.00 | Cc1cc(S(=O)(=O)NCc2cccnc2)cnc1-c1ccc(N(Cc2cccnc2)C(=O)c2ccc(O)cc2O)cc1
40 | 6.00 | CN(Cc1ccc2ccccc2c1)C(=O)c1ccc(N(Cc2ccsc2)C(=O)c2ccc(O)cc2O)cc1
41 | 7.00 | N#Cc1cncnc1-c1ccc(N(Cc2cccnc2)C(=O)c2ccc(O)cc2O)cc1
42 | 7.00 | COc1ccc(CNC(=O)c2ccc(N(Cc3cccnc3)C(=O)c3ccc(O)cc3O)cc2)cc1
43 | 8.00 | COc1ccc(CN(C)C(=O)c2ccc(N(Cc3cccnc3)C(=O)c3cc(Cl)c(O)cc3O)cc2)cc1
44 | 7.00 | CN(C)C(=O)c1ccc(N(CC2CCCC2)C(=O)c2ccc(O)cc2O)cc1
45 | 8.00 | CN(Cc1cccc2ccccc12)C(=O)c1ccc(N(Cc2cccnc2)C(=O)c2ccc(O)cc2O)cc1
46 | 7.00 | CN(Cc1cccc2cccnc12)C(=O)c1ccc(N(Cc2ccccc2)C(=O)c2ccc(O)cc2O)cc1

Row | pIC50 | Compound
47 | 6.00 | CN(C)CCN(C)C(=O)c1ccc(N(Cc2cccnc2)C(=O)c2ccc(O)cc2O)cc1
48 | 7.00 | Cc1nccn1-c1ccc(-c2ccc(N(Cc3cccnc3)C(=O)c3ccc(O)cc3O)cc2)nn1
49 | 8.00 | Cc1cc(S(=O)(=O)NCCCC(N)=O)cnc1-c1ccc(N(Cc2cccnc2)C(=O)c2ccc(O)cc2O)cc1
50 | 8.00 | Cc1cnc(Cl)nc1-c1ccc(N(Cc2ccsc2)C(=O)c2cc(Cl)c(O)cc2O)cc1
51 | 6.00 | Cc1cn(-c2ccc(-c3ccc(N(Cc4ccccc4)C(=O)c4ccc(O)cc4O)cc3)nn2)cn1
52 | 6.00 | Cc1cc(S(=O)(=O)N2CCC(F)(F)CC2)cnc1-c1ccc(N(Cc2ccccc2)C(=O)c2ccc(O)cc2O)cc1
53 | 6.00 | CCNC(=O)Nc1ccc(N(Cc2ccccc2)C(=O)c2ccc(O)cc2O)cc1
54 | 6.00 | Cn1ccnc1-c1ccc(N(Cc2ccccc2)C(=O)c2ccc(O)cc2O)cc1
55 | 6.00 | O=C(c1ccc(O)cc1O)N(Cc1ccsc1)c1ccc(-c2ccncc2C(F)(F)F)cc1
56 | 5.00 | N#Cc1cc(Cl)nc(-c2ccc(N(Cc3ccsc3)C(=O)c3ccc(O)cc3O)cc2)c1
57 | 6.00 | Cc1cc(N(Cc2ccccc2)C(=O)c2ccc(O)cc2O)ccc1-c1nc(Cl)ncc1C
58 | 6.00 | COc1ccc(-c2ccc(N(Cc3cccnc3)C(=O)c3ccc(O)cc3O)cc2)c(OC)c1
59 | 8.00 | Cc1cc(S(=O)(=O)N2CCN(C)CC2)cnc1-c1ccc(N(Cc2cccnc2)C(=O)c2ccc(O)cc2O)cc1
60 | 6.00 | O=C(NC1CC1)c1ccc(N(Cc2ccccc2)C(=O)c2ccc(O)cc2O)cc1
61 | 7.00 | Cc1cc2ccc(F)cc2nc1-c1ccc(N(Cc2cccnc2)C(=O)c2ccc(O)cc2O)cc1
62 | 6.00 | CC(c1ccccc1)N(C(=O)c1ccc(O)cc1O)c1ccc(C(=O)N(C)C)cc1 (stereo unspecified)
63 | 6.00 | O=C(c1ccc(O)cc1O)N(Cc1cccnc1)c1ccc(-c2ccc(N3CCOCC3)nn2)cc1
64 | 7.00 | COCCN(C)S(=O)(=O)c1cnc(-c2ccc(N(Cc3ccccc3)C(=O)c3ccc(O)cc3O)cc2)c(C)c1
65 | 6.00 | Cc1c(-c2ccc(N(Cc3ccccc3)C(=O)c3ccc(O)cc3O)cc2)ccc2c1NC(=O)C2=O
66 | 6.00 | CN(C)C(=O)c1ccc(N(Cc2csc3ccc(Cl)cc23)C(=O)c2cc(Cl)c(O)cc2O)cc1
67 | 5.00 | CCOC(=O)c1nc(-c2ccc(N(Cc3ccccc3)C(=O)c3ccc(O)cc3O)cc2)c2ccccc2n1
68 | 8.00 | Cc1cc(S(=O)(=O)NCc2cccnc2)cnc1-c1ccc(N(Cc2ccccc2)C(=O)c2ccc(O)cc2O)cc1
69 | 6.00 | Cc1cnc(-c2cccc(F)c2)nc1-c1ccc(N(Cc2ccccc2)C(=O)c2ccc(O)cc2O)cc1

Row | pIC50 | Compound
70 | 7.00 | CN(Cc1ccc2ccccc2n1)C(=O)c1ccc(N(Cc2cccnc2)C(=O)c2ccc(O)cc2O)cc1
71 | 6.00 | O=C(c1ccc(O)cc1O)N(Cc1cccnc1)c1ccc(-c2cnc3ccccc3n2)cc1
72 | 5.00 | O=C(Nc1ccc(N(Cc2ccccc2)C(=O)c2ccc(O)cc2O)cc1)c1cc2ccccc2s1
73 | 7.00 | CCc1cnc(C)nc1-c1ccc(N(Cc2ccccc2)C(=O)c2ccc(O)cc2O)cc1
74 | 5.00 | O=C(c1ccc(O)cc1O)N(Cc1ccccc1)c1ccc(-c2nc(Cl)nc3ccsc23)cc1
75 | 7.00 | CN(Cc1cccc2cnccc12)C(=O)c1ccc(N(Cc2cccnc2)C(=O)c2ccc(O)cc2O)cc1
76 | 8.00 | O=C(c1ccc(O)cc1O)N(Cc1cccnc1)c1ccc(-c2nc(C(F)(F)F)ccc2C(F)(F)F)cc1
77 | 5.00 | O=C(c1ccc(O)cc1O)N(Cc1ccsc1)c1ccc(-c2cnc3ccccc3n2)cc1
78 | 7.00 | O=C(c1ccc(O)cc1O)N(Cc1ccsc1)c1ccc(-c2nc(Cl)nc3c2COCC3)cc1
79 | 7.00 | CN(Cc1cccs1)C(=O)c1ccc(N(Cc2ccccc2)C(=O)c2ccc(O)cc2O)cc1
80 | 6.00 | O=C(c1ccc(O)cc1O)N(Cc1cccnc1)c1ccc(-c2ccccc2Cl)cc1
81 | 6.00 | Cc1nc(-c2ccc(N(Cc3ccsc3)C(=O)c3ccc(O)cc3O)cc2)c2ccccc2n1
82 | 7.00 | Cc1cncnc1-c1ccc(N(Cc2ccccc2)C(=O)c2ccc(O)cc2O)cc1
83 | 7.00 | CCOC(=O)c1nc(-c2ccc(N(Cc3cccnc3)C(=O)c3ccc(O)cc3O)cc2)c2ccccc2n1
84 | 7.00 | COc1ccc2nc(-c3ccc(N(Cc4ccsc4)C(=O)c4ccc(O)cc4O)cc3)c(C)cc2c1
85 | 7.00 | O=C(c1ccc(O)cc1O)N(Cc1ccccc1)c1ccc(-c2ccc(-n3ccnc3)nn2)cc1
86 | 7.00 | O=C(c1ccc(N(Cc2cccnc2)C(=O)c2ccc(O)cc2O)cc1)N1CCC(O)CC1
87 | 6.00 | Cc1ccc(Cl)cc1-c1ccc(N(Cc2ccccc2)C(=O)c2ccc(O)cc2O)cc1
88 | 6.00 | Cc1c(-c2ccc(N(Cc3cccnc3)C(=O)c3ccc(O)cc3O)cc2)ccc2[nH]ncc12
89 | 5.00 | Cc1cc(C(=O)Nc2ccc(N(Cc3ccccc3)C(=O)c3ccc(O)cc3O)cc2)no1
90 | 6.00 | CCNc1cc(-c2ccc(N(Cc3cccnc3)C(=O)c3ccc(O)cc3O)cc2)ncn1
91 | 7.00 | O=C(c1ccc(O)cc1O)N(Cc1ccccc1)c1ccc(-c2ncnc3ccc(Cl)cc23)cc1
